# What was measured:
# [1] = molecular target: GDP-bound NRAS wild-type protein (Homo sapiens, UniProt P01111); test: Binding to NRAS by surface plasmon resonance (SPR), Single Cycle Kinetics; details: SPR, GDP-bound NRAS wild-type protein vs GDP-bound KRAS wild-type protein
# [2] = molecular target: GDP-bound HRAS wild-type protein (Homo sapiens, UniProt P01112); test: Binding to HRAS by surface plasmon resonance (SPR), Single Cycle Kinetics; details: SPR, GDP-bound HRAS wild-type protein vs GDP-bound KRAS wild-type protein
# [3] = molecular target: GDP-bound KRAS wild-type protein (Homo sapiens, UniProt P01116); test: Binding to KRAS by surface plasmon resonance (SPR), Single Cycle Kinetics; details: SPR Single Cycle Kinetics, GDP-bound KRAS wild-type protein, 1:1 binding model; read-out: KRAS KD
# Sequence of GDP-bound KRAS wild-type protein (P01116 whole entry): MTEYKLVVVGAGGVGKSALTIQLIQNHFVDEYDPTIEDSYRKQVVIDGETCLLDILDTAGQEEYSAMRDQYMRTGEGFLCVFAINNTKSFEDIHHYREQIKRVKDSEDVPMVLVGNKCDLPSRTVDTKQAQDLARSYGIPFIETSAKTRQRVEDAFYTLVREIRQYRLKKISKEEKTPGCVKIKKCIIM
# Sequence of GDP-bound NRAS wild-type protein (P01111 whole entry): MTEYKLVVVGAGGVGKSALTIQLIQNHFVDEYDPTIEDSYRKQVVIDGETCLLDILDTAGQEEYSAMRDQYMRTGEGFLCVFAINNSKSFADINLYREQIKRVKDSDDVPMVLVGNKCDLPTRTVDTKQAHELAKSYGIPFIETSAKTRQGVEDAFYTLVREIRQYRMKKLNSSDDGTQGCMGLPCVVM
# Sequence of GDP-bound HRAS wild-type protein (P01112 whole entry): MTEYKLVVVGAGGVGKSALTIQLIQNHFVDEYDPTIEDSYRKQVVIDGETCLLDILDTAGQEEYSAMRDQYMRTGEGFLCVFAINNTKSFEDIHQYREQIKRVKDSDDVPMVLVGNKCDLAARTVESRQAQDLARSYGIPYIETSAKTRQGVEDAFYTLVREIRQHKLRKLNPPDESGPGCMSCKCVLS
Compound,NRAS/KRAS (ratio of KD value with respect to NRAS to KD value with respect to KRAS) [1],HRAS/KRAS (ratio of KD value with respect to HRAS to KD value with respect to KRAS) [2],Kd [3]
CCO[C@@H]1C[C@H]2C(=O)NC3(CCC3)C(=O)N(C)[C@@H](C3CCCC3)C(=O)N(CCc3ccccc3)[C@H](C(=O)N(C)C)CC(=O)N(C)[C@@H](CC)C(=O)N[C@@H]([C@@H](C)CC)C(=O)N(C)CC(=O)N(C)[C@H]3CCCCN(C3=O)[C@@H](Cc3ccc(C(F)(F)F)cc3)C(=O)N(C)CC(=O)N[C@@H](CCc3cc(F)c(C(F)(F)F)c(F)c3)C(=O)N2C1 [PP0647],C (A compound having a KD ratio of 0.1 or more and less than 3 is denoted as C),B (a compound having 3 or more and less than 10 is denoted as B),0.68 nM
CCO[C@@H]1C[C@H]2C(=O)NC3(CCC3)C(=O)N(C)[C@@H](C3CCCC3)C(=O)N(CC)[C@H](C(=O)N3CCOCC3)CC(=O)N(C)[C@@H](CC(C)C)C(=O)N[C@@H]([C@@H](C)CC)C(=O)N(C)CC(=O)N(C)[C@H]3CCCCN(C3=O)[C@@H](Cc3ccc(C(F)(F)F)cc3)C(=O)N(C)CC(=O)N[C@@H](CCc3cc(F)c(C(F)(F)F)c(F)c3)C(=O)N2C1 [PP0648],B (a compound having 3 or more and less than 10 is denoted as B),B (a compound having 3 or more and less than 10 is denoted as B),0.21 nM
CCCN1C(=O)[C@H](C2CCCC2)N(C)C(=O)C2(CCC2)NC(=O)[C@@H]2C[C@@H](OCC)CN2C(=O)[C@H](CCc2cc(F)c(C(F)(F)F)c(F)c2)NC(=O)CN(C)C(=O)[C@H](Cc2ccc(C(F)(F)F)cc2)N2CCCC[C@@H](C2=O)N(C)C(=O)CN(C)C(=O)[C@H]([C@@H](C)CC)NC(=O)[C@H](CC(C)C)N(C)C(=O)C[C@H]1C(=O)N1CCOCC1 [PP0649],C (A compound having a KD ratio of 0.1 or more and less than 3 is denoted as C),B (a compound having 3 or more and less than 10 is denoted as B),0.75 nM
CCO[C@@H]1C[C@H]2C(=O)NC3(CCC3)C(=O)N(C)[C@@H](C3CCCC3)C(=O)N(CCC3CCC3)[C@H](C(=O)N3CCOCC3)CC(=O)N(C)[C@@H](CC(C)C)C(=O)N[C@@H]([C@@H](C)CC)C(=O)N(C)CC(=O)N(C)[C@H]3CCCCN(C3=O)[C@@H](Cc3ccc(C(F)(F)F)cc3)C(=O)N(C)CC(=O)N[C@@H](CCc3cc(F)c(C(F)(F)F)c(F)c3)C(=O)N2C1 [PP0650],C (A compound having a KD ratio of 0.1 or more and less than 3 is denoted as C),B (a compound having 3 or more and less than 10 is denoted as B),0.62 nM
CCO[C@@H]1C[C@H]2C(=O)NC3(CCC3)C(=O)N(C)[C@@H](C3CCCC3)C(=O)N(CCC3CCCC3)[C@H](C(=O)N3CCOCC3)CC(=O)N(C)[C@@H](CC(C)C)C(=O)N[C@@H]([C@@H](C)CC)C(=O)N(C)CC(=O)N(C)[C@H]3CCCCN(C3=O)[C@@H](Cc3ccc(C(F)(F)F)cc3)C(=O)N(C)CC(=O)N[C@@H](CCc3cc(F)c(C(F)(F)F)c(F)c3)C(=O)N2C1 [PP0651],B (a compound having 3 or more and less than 10 is denoted as B),B (a compound having 3 or more and less than 10 is denoted as B),0.6 nM
CC[C@H](C)[C@@H]1NC(=O)[C@H](CC)N(C)C(=O)C[C@@H](C(=O)N(C)C)N(C)C(=O)[C@H](C2CCCC2)N(C)C(=O)C2(CCC2)NC(=O)[C@@H]2CCCCN2C(=O)[C@H](CCc2cc(F)c(C(F)(F)F)c(F)c2)NC(=O)CN(C)C(=O)[C@H](Cc2ccc(C(F)(F)F)cc2)N2CCCCC[C@@H](C2=O)N(C)C(=O)CN(C)C1=O [PP0655],B (a compound having 3 or more and less than 10 is denoted as B),B (a compound having 3 or more and less than 10 is denoted as B),1.9 nM
CC[C@H](C)[C@@H]1NC(=O)[C@H](CC)N(C)C(=O)C[C@@H](C(=O)N(C)C)N(C)C(=O)[C@H](C2CCCC2)N(C)C(=O)C2(CCC2)NC(=O)[C@@H]2C[C@@H](N3CCC(F)(F)CC3)CN2C(=O)[C@H](CCc2cc(F)c(C(F)(F)F)c(F)c2)NC(=O)CN(C)C(=O)[C@H](Cc2ccc(C(F)(F)F)cc2)N2CCCC[C@@H](C2=O)N(C)C(=O)CN(C)C1=O [PP0656],C (A compound having a KD ratio of 0.1 or more and less than 3 is denoted as C),C (A compound having a KD ratio of 0.1 or more and less than 3 is denoted as C),0.039 nM
CC[C@H](C)[C@@H]1NC(=O)[C@H](CC)N(C)C(=O)C[C@@H](C(=O)N(C)C)N(C)C(=O)[C@H](C2CCCC2)N(C)C(=O)C2(CCC2)NC(=O)[C@@H]2CCN2C(=O)[C@H](CCc2cc(F)c(C(F)(F)F)c(F)c2)NC(=O)CN(C)C(=O)[C@H](Cc2ccc(C(F)(F)F)cc2)N2CCCC[C@@H](C2=O)N(C)C(=O)CN(C)C1=O [PP0657],B (a compound having 3 or more and less than 10 is denoted as B),B (a compound having 3 or more and less than 10 is denoted as B),0.076 nM
CC[C@H](C)[C@@H]1NC(=O)[C@H](CC)N(C)C(=O)C[C@@H](C(=O)N(C)C)N(C)C(=O)[C@H](C2CCCC2)N(C)C(=O)C2(CCC2)NC(=O)[C@@H]2CCCCN2C(=O)[C@H](CCc2cc(F)c(C(F)(F)F)c(F)c2)NC(=O)CN(C)C(=O)[C@H](Cc2ccc(C(F)(F)F)cc2)N2CCCC[C@@H](C2=O)N(C)C(=O)CN(C)C1=O [PP0658],C (A compound having a KD ratio of 0.1 or more and less than 3 is denoted as C),B (a compound having 3 or more and less than 10 is denoted as B),0.034 nM
CC[C@H](C)[C@@H]1NC(=O)[C@H](CC)N(C)C(=O)C[C@@H](C(=O)N(C)C)N(CC)C(=O)[C@H](C2CCCC2)N(C)C(=O)C2(CCC2)NC(=O)[C@@H]2C[C@H](N3CCC(F)(F)CC3)CN2C(=O)[C@H](CCc2cc(F)c(C(F)(F)F)c(F)c2)NC(=O)CN(C)C(=O)[C@H](Cc2ccc(C(F)(F)F)cc2)N2CCCC[C@@H](C2=O)N(C)C(=O)CN(C)C1=O [PP0659],B (a compound having 3 or more and less than 10 is denoted as B),B (a compound having 3 or more and less than 10 is denoted as B),0.42 nM
CC[C@H](C)[C@@H]1NC(=O)[C@H](CC)N(C)C(=O)C[C@@H](C(=O)N(C)C)N(CC)C(=O)[C@H](C2CCCC2)N(C)C(=O)C2(CCC2)NC(=O)[C@@H]2CCN2C(=O)[C@H](CCc2cc(F)c(C(F)(F)F)c(F)c2)NC(=O)CN(C)C(=O)[C@H](Cc2ccc(C(F)(F)F)cc2)N2CCCC[C@@H](C2=O)N(C)C(=O)CN(C)C1=O [PP0660],B (a compound having 3 or more and less than 10 is denoted as B),B (a compound having 3 or more and less than 10 is denoted as B),0.29 nM
CC[C@H](C)[C@@H]1NC(=O)[C@H](CC)N(C)C(=O)C[C@@H](C(=O)N(C)C)N(CC)C(=O)[C@H](C2CCCC2)N(C)C(=O)C2(CCC2)NC(=O)[C@@H]2CCCCN2C(=O)[C@H](CCc2cc(F)c(C(F)(F)F)c(F)c2)NC(=O)CN(C)C(=O)[C@H](Cc2ccc(C(F)(F)F)cc2)N2CCCC[C@@H](C2=O)N(C)C(=O)CN(C)C1=O [PP0661],C (A compound having a KD ratio of 0.1 or more and less than 3 is denoted as C),B (a compound having 3 or more and less than 10 is denoted as B),0.34 nM
CC[C@H](C)[C@@H]1NC(=O)[C@H](CC(C)C)N(C)C(=O)C[C@@H](C(=O)N2CCOCC2)N(C)C(=O)[C@H](C2CCCC2)N(C)C(=O)C2(CCCC2)NC(=O)[C@@H]2[C@@H](O)CCN2C(=O)[C@H](CCc2cc(F)c(C(F)(F)F)c(F)c2)NC(=O)CN(C)C(=O)[C@H](Cc2ccc(C(F)(F)F)cc2)N2CCCCC[C@@H](C2=O)N(C)C(=O)CN(C)C1=O [PP0662],B (a compound having 3 or more and less than 10 is denoted as B),B (a compound having 3 or more and less than 10 is denoted as B),3.1 nM
CCO[C@@H]1C[C@H]2C(=O)NC3(CCC3)C(=O)N(C)[C@@H](C3CCCC3)C(=O)N(C)[C@H](C(=O)N(C)C)CC(=O)N(C)[C@@H](CC)C(=O)N[C@@H]([C@@H](C)CC)C(=O)N(C)CC(=O)N(C)[C@H]3CCCCCN(C3=O)[C@@H](Cc3ccc(C(F)(F)F)cc3)C(=O)N(C)CC(=O)N[C@@H](CCc3cc(F)c(C(F)(F)F)c(F)c3)C(=O)N2C1 [PP0663],B (a compound having 3 or more and less than 10 is denoted as B),B (a compound having 3 or more and less than 10 is denoted as B),0.28 nM
C=CC[C@H]1C(=O)N[C@@H]([C@@H](C)CC)C(=O)N(C)CC(=O)N(C)[C@H]2CCCCCN(C2=O)[C@@H](Cc2ccc(C(F)(F)F)cc2)C(=O)N(C)CC(=O)N[C@@H](CCc2cc(F)c(C(F)(F)F)c(F)c2)C(=O)N2C[C@H](OCC)C[C@H]2C(=O)NC2(CCC2)C(=O)N(C)[C@@H](C2CCCC2)C(=O)N(C)[C@H](C(=O)N(C)C)CC(=O)N1C [PP0665],B (a compound having 3 or more and less than 10 is denoted as B),B (a compound having 3 or more and less than 10 is denoted as B),0.24 nM
